Measurements: ChEMBL document CHEMBL1151679, “A new cytotoxic sterol methoxymethyl ether from a deep water marine sponge Scleritoderma sp. cf. paccardi” (J Nat Prod, 1996)
Converted amounts (≈) assume the structure as drawn.

Tested on: P388
Test: Cytotoxicity against mouse P388 cells
Type: functional, cell-based

Structure (SMILES): COCO[C@H]1CC[C@@]2(C)[C@@H](CC=C3[C@@H]2CC[C@]2(C)[C@@H]([C@H](C)CC[C@@H](C)C(C)C)CC[C@@H]32)C1
- IC50: 2.3 µg/mL (≈ 5.17 µM)
